Where two headings read alike, the source gives them in different places.
Columns and labels:
[1] = test system: SMN2-linked luciferase-reporter gene construct; test: SMN splice reporter assay (SMN2-linked luciferase reporter, Example 10); assay type: cell-based; conditions: for maximal fold induction: read-out: SMN Splice Reporter Assay (Example 10) Avg MaxFold Increase
How it was run: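 Cervical carcinoma cells stably carrying an SMN2–luciferase splice reporter, in which luciferase is in frame only when SMN2 exon 7 is included, were treated with compound. Luciferase activity was read and expressed as fold increase over untreated transformed cells.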

[2] = test system: luciferase reporter containing the UAG stop codon; test: Translational read-through luciferase reporter assay, UAG stop codon; assay type: cell-based; conditions: read-out: MaxFold Increase
Excerpt: This assay is described in detail in WO 01/44516 A2. This is a cell-based luciferase reporter assay designed to detect translational read-through via insertion of a translational stop codon within the luciferase coding sequence. In the presence of compounds that promote read-through of translational stop codons, active luciferase is produced and detected via chemiluminescence. We have shown that indoprofen analogs are active in two versions of this assay—one containing a UGA stop codon and one containing a UAG stop codon. The data in the table is from the luciferase reporter containing the UAG stop codon. This is the first stop codon downstream of the improper splice junction between exons 6 and 8 in the human SMN2 transcript.

[3] = SMN2-linked luciferase reporter, average
[4] = maximum fold increase of reporter signal, average
[5] = SMN2-linked luciferase reporter, average maximum fold increase

| Structure (SMILES) | EC50 [1, 3] [nM] | maximal fold induction [1, 4] | maximal fold induction [2] | maximal fold induction [1, 5] |
| --- | --- | --- | --- | --- |
| CC(C(=O)O)c1ccc(N2Cc3ccc(Cl)cc3C2=O)cc1 (stereo not shown) [ALB-111743] | 267 | 1.67 | 2.7 |  |
| CCCc1ccc2c(c1)C(=O)N(c1ccc(C(C)C(=O)OC(C)(C)C)cc1)C2 (stereo not shown) [ALB-113213] | 565 | 1.23 | 1.9 |  |
| CC(C(=O)O)c1ccc(N2Cc3ccc(N(C)C)cc3C2=O)cc1 (stereo not shown) [ALB-113648] | 28 | 1.6 | 3.3 |  |
| CC(C(=O)O)c1ccc(N2Cc3ccc(C(F)(F)F)cc3C2=O)cc1 (stereo not shown) [ALB-113652] | 1490 | 1.66 | 2.9 |  |
| CC(C)c1ccc(N2Cc3ccccc3C2=O)cc1 [ALB-114274] | 52 | 1.4 | 2.6 |  |
| COc1ccc2c(c1)C(=O)N(c1ccc(C(C)C(O)OC)cc1)C2 (stereo not shown) [ALB-114441] | 76 | 1.67 | 3.2 |  |
| COCC(C)c1ccc(N2Cc3ccc(OC)cc3C2=O)cc1 (stereo not shown) [ALB-114783] | 186 | 1.37 | 2.6 |  |
| CC(C(=O)O)c1ccc(N2Cc3cc4c(cc3C2=O)OCCO4)cc1 (stereo not shown) [ALB-114844] | 8 | 1.36 | 2.4 |  |
| CC(C)c1ccc(N2Cc3ccc(Br)cc3C2=O)cc1 [ALB-114901] | 193 | 1.52 | 2.6 |  |
| COc1ccc2c(c1)C(=O)N(c1ccc(C)cc1)C2 [ALB-115084] | 60 | 1.39 | 2.3 |  |
| Cc1ccc2c(c1)C(=O)N(c1ccc(C(C)C)cc1)C2 [ALB-115586] | 97 | 1.32 | 2.3 |  |
| Cc1cccc2c1C(=O)N(c1ccc(C(C)C)cc1)C2 [ALB-115812] | 163 | 1.35 | 3 |  |
| Cc1ccc2c(c1)CN(c1ccc(C(C)C)cc1)C2=O [ALB-115948] | 30 | 1.42 | 2.8 |  |
| CCOc1ccc2c(c1)C(=O)N(c1ccc(C(C)C)cc1)C2 [ALB-116074] | 310 | 1.51 | 2.9 |  |
| CC(C)c1ccc(N2Cc3ccc(O)cc3C2=O)cc1 [ALB-116078] | 267 |  | 3.3 | 1.64 |
| CC(C)c1ccc(N2Cc3ccc(Cl)cc3C2=O)cc1 [ALB-116246] | 31 | 1.35 | 2.7 |  |
| CC(C)c1ccc(N2Cc3cc4c(cc3C2=O)OCO4)cc1 [ALB-116362] | 123 |  | 2.3 | 1.52 |
| CC(C)c1ccc(N2Cc3cc(Cl)ccc3C2=O)cc1 [ALB-116932] | 81 | 1.45 | 2.4 |  |
| CNc1ccc2c(c1)C(=O)N(c1ccc(C(C)C)cc1)C2 [ALB-117046] | 90 | 1.44 | 2.9 |  |
| CCCC(C)c1ccc(N2Cc3ccc(OC)cc3C2=O)cc1 (stereo not shown) [ALB-117451] | 2910 | 1.74 | 2.1 |  |
| CC(C)(C)c1ccc(N2Cc3cc4c(cc3C2=O)OCCO4)cc1 [ALB-117452] | 289 |  | 2.2 | 1.4 |
| COc1ccc2c(c1)CN(c1ccc(C(C)C)cc1)C2=O [ALB-117453] | 180 | 1.28 |  |  |

| Structure (SMILES) | EC50 [1, 3] [nM] | maximal fold induction [1, 4] | maximal fold induction [2] | maximal fold induction [1, 5] |
| --- | --- | --- | --- | --- |
| CC(C)c1ccc(N2Cc3cccc(Cl)c3C2=O)cc1 [ALB-117454] | 470 | 1.51 | 3.1 |  |
| CC(C#N)c1ccc(N2Cc3cc4c(cc3C2=O)OCCO4)cc1 (stereo not shown) [ALB-117571] | 401 |  |  | 1.3 |
| CC(C)c1ccc(N2Cc3cccc(N)c3C2=O)cc1 [ALB-117574] | 163 | 1.73 |  |  |
| COc1cc2c(cc1OC)C(=O)N(c1ccc(C(C)C)cc1)C2 [ALB-117672] | 319 | 1.47 |  |  |
| CC(C)c1ccc(N2Cc3cc(N)ccc3C2=O)cc1 [ALB-117747] | 34 | 1.49 |  |  |
| COc1cccc2c1C(=O)N(c1ccc(C(C)C)cc1)C2 [ALB-117748] | 166 | 1.34 |  |  |
| CC(C)c1ccc(N2Cc3ccc4c(c3C2=O)OCO4)cc1 [ALB-117751] | 27 |  |  | 1.34 |
| CC(C)c1ccc(N2Cc3cc(N(C)C)ccc3C2=O)cc1 [ALB-117752] | 42 | 1.38 |  |  |
| CC(C)c1ccc(N2Cc3cccc(I)c3C2=O)cc1 [ALB-117753] | 183 | 1.6 |  |  |
| COc1cc2c(c(OC)c1Br)C(=O)N(c1ccc(C(C)C)cc1)C2 [ALB-117901] |  | 1.07 |  |  |
| CC(C)c1ccc(N2Cc3ccc(O)c(O)c3C2=O)cc1 [ALB-117903] |  |  |  | 1.07 |
| CC(C)c1ccc(N2Cc3cccc(N(C)C)c3C2=O)cc1 [ALB-117904] | 4370 | 1.46 |  |  |
| CNc1cccc2c1C(=O)N(c1ccc(C(C)C)cc1)C2 [ALB-117905] | 414 | 1.55 |  |  |
| COc1cc2c(c(OC)c1)C(=O)N(c1ccc(C(C)C)cc1)C2 [ALB-118034] | 447 | 1.3 |  |  |
| COc1cc2c(cc1O)CN(c1ccc(C(C)C)cc1)C2=O [ALB-118035] |  |  |  | 1.13 |
| COc1ccc2c(c1OC)C(=O)N(c1ccc(C(C)C)cc1)C2 [ALB-118036] | 2670 | 1.29 |  |  |
| CC(C)c1ccc(N2Cc3ccc(-c4ccccc4)cc3C2=O)cc1 [ALB-118037] | 937 | 1.34 |  |  |
| COc1ccc(-c2ccc3c(c2)C(=O)N(c2ccc(C(C)C)cc2)C3)cc1 [ALB-118038] |  | 1.08 |  |  |
| CC(=O)Nc1ccc2c(c1)C(=O)N(c1ccc(C(C)C)cc1)C2 [ALB-118157] | 203 |  |  | 1.51 |
| CC(C)c1ccc(N2Cc3cccc(O)c3C2=O)cc1 [ALB-118158] | 733 |  |  | 1.54 |
| CC(C)c1ccc(N2Cc3cc(OC(F)F)ccc3C2=O)cc1 [ALB-118159] | 2090 |  |  | 1.32 |
| CC(C)c1ccc(N2Cc3ccc4c(c3C2=O)OCCO4)cc1 [ALB-118160] | 46 |  |  | 1.43 |

| Structure (SMILES) | EC50 [1, 3] [nM] | maximal fold induction [1, 4] | maximal fold induction [2] | maximal fold induction [1, 5] |
| --- | --- | --- | --- | --- |
| CCOc1ccc2c(c1)CN(c1ccc(C(C)C)cc1)C2=O [ALB-118276] |  | 1.05 |  |  |
| CC(C)c1ccc(N2Cc3cc(O)ccc3C2=O)cc1 [ALB-118277] | 27 |  |  | 1.15 |
| CCOc1cccc2c1C(=O)N(c1ccc(C(C)C)cc1)C2 [ALB-118278] | 1380 | 1.5 |  |  |
| CC(C)c1ccc(N2Cc3cccc(OC(F)F)c3C2=O)cc1 [ALB-118279] | 220 |  |  | 1.55 |
| COc1cc2c(cc1F)CN(c1ccc(C(C)C)cc1)C2=O [ALB-118413] | 119 | 1.39 |  |  |
| CCNC(=O)Nc1ccc2c(c1)C(=O)N(c1ccc(C(C)C)cc1)C2 [ALB-118414] | 3530 |  |  | 1.35 |
| CCCNC(=O)Nc1ccc2c(c1)C(=O)N(c1ccc(C(C)C)cc1)C2 [ALB-118415] | 13200 |  |  | 1.4 |
| CC(C)c1ccc(N2Cc3ccc(NC(=O)Nc4ccccc4)cc3C2=O)cc1 [ALB-118416] |  |  |  | 1.17 |
| CNC(=O)Nc1ccc2c(c1)C(=O)N(c1ccc(C(C)C)cc1)C2 [ALB-118558] | 865 |  |  | 1.58 |
| CC(C)NC(=O)Nc1ccc2c(c1)C(=O)N(c1ccc(C(C)C)cc1)C2 [ALB-118559] |  |  |  | 1.1 |
| CC(C)c1ccc(N2Cc3ccc(NC(=O)N(C)C)cc3C2=O)cc1 [ALB-118731] | 854 |  |  | 1.2 |
| CCN(C)C(=O)Nc1ccc2c(c1)C(=O)N(c1ccc(C(C)C)cc1)C2 [ALB-118732] |  |  |  | 1.15 |
| CC(C)c1ccc(N2Cc3ccc(NC(=O)N(C)c4ccccc4)cc3C2=O)cc1 [ALB-118733] |  |  |  | 1.12 |
| CCCN(C)C(=O)Nc1ccc2c(c1)C(=O)N(c1ccc(C(C)C)cc1)C2 [ALB-118898] |  |  |  | 1.06 |
| CC(C)c1ccc(N2Cc3ccc(NC(=O)N(C)C(C)C)cc3C2=O)cc1 [ALB-118899] |  |  |  | 1.08 |
| CC(C)c1ccc(N2Cc3ccc(N(C)C(=O)N(C)C)cc3C2=O)cc1 [ALB-118901] | 493 |  |  | 1.31 |
| CC(C)(C)c1ccc(N2Cc3ccc(OC(F)F)cc3C2=O)cc1 [ALB-119043] | 992 |  |  | 1.39 |
| COc1cc2c(cc1F)CN(c1ccc(C(C)C(=O)O)cc1)C2=O (stereo not shown) [ALB-119048] | 255 | 1.54 |  |  |
| CCN(C)C(=O)N(C)c1ccc2c(c1)C(=O)N(c1ccc(C(C)C)cc1)C2 [ALB-119049] |  |  |  | 1.08 |
| CC(C(=O)O)c1ccc(N2Cc3ccc(OC(F)F)cc3C2=O)cc1 (stereo not shown) [ALB-119335] | 51 |  |  | 1.54 |
| CC(C(=O)OC(C)(C)C)c1ccc(N2Cc3ccc(OC(F)F)cc3C2=O)cc1 (stereo not shown) [ALB-119336] | 718 |  |  | 1.21 |
| Cc1ccc(N2Cc3ccc(OC(F)F)cc3C2=O)cc1 [ALB-119515] | 146 |  |  | 1.46 |
